Values of other authors as cited in patent US5814653A, “Pharmaceutical method using 6-substituted-1, 2, 3, 4-tetrahydro-9H-carbazoles and 7-substituted-10H -cyclohepta (7, 6-B) indoles” (priority 1997, dated 1998).

What was measured:
migraine headache = conditions: Humphrey, et al. (1990)
neurogenic inflammation = conditions: Neurology, 43(suppl. 3), S16-S20 (1993)
[1] = in vivo

CNS(=O)(=O)Cc1ccc2[nH]cc(CCN(C)C)c2c1.O=C(O)CCC(=O)O [Compound I, 3-[2-(dimethylamino)ethyl]-N-methyl-1H-indole-5-methanesulfonamide butane-1,4-dioate (1:1)]
effectiveness in the treatment of migraine headache (migraine headache): effective in the treatment of migraine | blockade of neurogenic inflammation (neurogenic inflammation): blocked | undesirable side effects [1]: undesirable side effects, particularly vasoconstriction
